Here are results for 2 molecules from PMC7555825, “New Insights of the Zn(II)-Induced P2 × 4R Positive Allosteric Modulation: Role of Head Receptor Domain SS2/SS3, E160 and D170” (International Journal of Molecular Sciences, 2020).

Residue numbers refer to the chain shown, from its start.

One assay addresses T1, rP2 × 4R (Rattus norvegicus, UniProt P51577).
T1 construct: host or cells: Xenopus laevis oocytes (intranuclear plasmid injection, pcDNA3)
T1 sequence (P51577 1-388): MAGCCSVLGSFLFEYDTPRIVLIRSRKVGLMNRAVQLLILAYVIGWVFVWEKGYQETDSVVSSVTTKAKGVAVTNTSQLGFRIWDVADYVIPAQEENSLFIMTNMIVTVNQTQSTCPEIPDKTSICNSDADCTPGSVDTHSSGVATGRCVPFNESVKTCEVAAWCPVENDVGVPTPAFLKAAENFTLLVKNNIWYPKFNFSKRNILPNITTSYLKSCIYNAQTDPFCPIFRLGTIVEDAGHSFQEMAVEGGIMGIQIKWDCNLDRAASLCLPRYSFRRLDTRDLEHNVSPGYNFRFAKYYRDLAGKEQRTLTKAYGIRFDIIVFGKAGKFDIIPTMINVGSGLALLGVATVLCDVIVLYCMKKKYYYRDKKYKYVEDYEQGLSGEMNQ
Briefly: ATP concentration–response curves, two-electrode voltage clamp in oocytes expressing wild type rP2 × 4R. The assay is classed as cell-based. A general note: Two-electrode voltage clamp is typically applied to oocytes expressing channels or transporters.

Assay [1] concerns the target T2, rP2 × 4R C126A/C149A mutant (Rattus norvegicus, UniProt P51577, C126A/C149A).
T2 construct: host or cells: Xenopus laevis oocytes
T2 sequence (P51577 1-388 C126A/C149A): T1 sequence (P51577 1-388) with C126A, C149A
The experiment in a line: ATP concentration–response curves, voltage clamp, C126A/C149A double mutant. The settings on record: for EC50: ATP EC50, C126A/C149A. The assay is classed as cell-based.

A further assay concerns the target T3, rP2 × 4R E160Q mutant (Rattus norvegicus, UniProt P51577, E160Q).
T3 construct: host or cells: Xenopus laevis oocytes
T3 sequence (P51577 1-388 E160Q): T1 sequence (P51577 1-388) with E160Q
Briefly: ATP concentration–response curves, voltage clamp, E160Q mutant. The settings on record: for EC50: ATP EC50, E160Q. The assay is classed as cell-based.

For another assay, the target named is T4, rP2 × 4R C159T mutant (Rattus norvegicus, UniProt P51577, C159T).
T4 construct: expressed in transfected cells; host or cells: Xenopus laevis oocytes
T4 sequence (P51577 1-388 C159T): T1 sequence (P51577 1-388) with C159T
Briefly: ATP concentration–response curves, voltage clamp, C159T mutant. The assay is classed as cell-based. The settings on record: for EC50: ATP EC50, C159T.

The next assay has as its target T5, rP2 × 4R C132A mutant (Rattus norvegicus, UniProt P51577, C132A).
T5 construct: expressed in transfected cells; host or cells: Xenopus laevis oocytes
T5 sequence (P51577 1-388 C132A): T1 sequence (P51577 1-388) with C132A
The experiment in a line: ATP concentration–response curves, voltage clamp, C132A mutant. The assay is classed as cell-based. The settings on record: for EC50: ATP EC50, C132A.

The target of a further assay is T6, rP2 × 2R (Rattus norvegicus, UniProt P49653).
T6 sequence (P49653 1-472): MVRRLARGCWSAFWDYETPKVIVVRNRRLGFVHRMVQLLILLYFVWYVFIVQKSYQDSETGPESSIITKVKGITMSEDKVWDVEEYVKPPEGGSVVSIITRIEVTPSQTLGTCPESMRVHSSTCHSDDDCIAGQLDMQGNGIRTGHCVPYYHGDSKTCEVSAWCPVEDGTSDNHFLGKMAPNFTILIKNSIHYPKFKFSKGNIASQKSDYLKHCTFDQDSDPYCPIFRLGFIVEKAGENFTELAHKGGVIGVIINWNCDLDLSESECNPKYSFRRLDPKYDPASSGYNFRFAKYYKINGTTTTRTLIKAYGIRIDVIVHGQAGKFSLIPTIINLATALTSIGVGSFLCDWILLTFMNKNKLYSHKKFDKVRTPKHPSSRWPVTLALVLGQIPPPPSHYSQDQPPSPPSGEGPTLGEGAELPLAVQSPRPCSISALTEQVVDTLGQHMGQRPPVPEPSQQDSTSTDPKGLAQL
Details: expressed in transfected cells; host or cells: Xenopus laevis oocytes (intranuclear plasmid injection); method as in PMID 10737610, PMID 10188989, PMID 10322050, PMID 8622997. The settings on record: P2 × 2R; cited from earlier work.

One may read the EC50 as the concentration giving half of the maximal effect. As to `Nc1ncnc2c1ncn2[C@@H]1O[C@H](COP(=O)(O)OP(=O)(O)OP(=O)(O)O)[C@@H](O)[C@H]1O` [ATP, adenosine triphosphate], the EC50 was found to be 24.5 ± 9.1 µM at rP2 × 4R (ATP EC50, NEM treatment + Zn(II) group, control before treatment (first ATP curve)); 23 ± 8.3 µM on rP2 × 4R (ATP EC50, NEM treatment + vehicle group, control before treatment (first ATP curve)); 27.5 ± 10.6 µM at rP2 × 4R (ATP EC50, P2 × 4 WT, control); 79.8 ± 64.4 µM on rP2 × 4R (ATP EC50, after 300 µM DTNB + 10 µM Zn(II) treatment and washout, Figure S3); 44.9 ± 17.7 µM at rP2 × 4R (ATP EC50, after 300 µM NEM + 10 µM Zn(II) treatment, control = ATP curve after treatment); 23.8 ± 7 µM on rP2 × 4R (ATP EC50, after 300 µM NEM + vehicle treatment, control = ATP curve after treatment). Besides, the EC50 on rP2 × 4R (ATP EC50, control of the DTNB + Zn(II) experiment, Figure S3) was 50.3 ± 16 µM; on rP2 × 4R (ATP EC50, vehicle-treated oocytes (Barth's buffer), Figure 1A, without Zn(II)), 35.3 ± 6.6 µM; in assay [1] (+10 µM Zn(II)) it was 10.1 ± 4.1 µM; in assay [1] (control), 22.9 ± 6.7 µM; at rP2 × 4R E160Q mutant (+10 µM Zn(II)), 25.9 ± 7.1 µM; at rP2 × 4R E160Q mutant (control) it was 23.8 ± 10.1 µM. The EC50 on rP2 × 4R C159T mutant (+10 µM Zn(II)) was found to be 7 ± 2 µM; at rP2 × 4R C159T mutant (control), 37.3 ± 8.8 µM; on rP2 × 4R C132A mutant (+10 µM Zn(II)), 19.9 ± 13.4 µM; on rP2 × 4R C132A mutant (control) it was 10.2 ± 3.8 µM. Also, at rP2 × 4R (after 300 µM NEM + 10 µM Zn(II) treatment, ATP curve in presence of 10 µM Zn(II)), the Imax came to 9.3 ± 2.2 µA.
Turning to `[Cl-].[Cl-].[Zn+2]` [Zn(II), zinc chloride (ZnCl2)], the “fold reduction of ATP EC50 by Zn(II)” value on rP2 × 4R (10 µM Zn(II), vehicle-treated oocytes) was determined as 3.82 fold. The “fold leftward shift of ATP EC50 by Zn(II)” value on rP2 × 4R (WT, matched paired control oocytes, 10 µM Zn(II)) was determined as 3.45 fold. Besides, the “fold leftward displacement of the ATP concentration–response curve by Zn(II)” value on rP2 × 2R is 5 fold. The “fold decrease in ATP EC50 by Zn(II)” value in assay [1] (C126A/C149A, 10 µM Zn(II)) amounted to 2.26 fold. Further, the “Zn(II) modulation of the mutant” value on rP2 × 4R E160Q mutant (E160Q, 10 µM Zn(II)) is on record as “resistant to Zn(II) modulation”; on rP2 × 4R C132A mutant (C132A, 10 µM Zn(II)), “resistant to Zn(II) modulation”. The “fold ATP EC50 reduction by Zn(II)” value on rP2 × 4R C159T mutant (C159T, 10 µM Zn(II)) came out at 5.32 fold.
